# Columns and labels:
# [1] = cited from earlier work
# [2] = QUASAR2 trial: FU-related adverse events of capecitabine +/- bevacizumab graded by NCI CTCAE v3.0; assay type: in vivo, human
# Protocol: The QUASAR2 study (http://www.octo-oxford.org.uk/alltrials/infollowup/q2.html; http://www.controlled-trials.com/ISRCTN45133151/) is a phase III randomised controlled trial of adjuvant capecitabine (Xeloda) (1250 mg/m2 twice daily d1-14 every 3 weeks, total of 8 cycles) +/−bevacizumab (7.5 mg/kg every three weeks) following resection of stage II/III CRC. Patients were entered into the study between July 2005 and December 2011 at 123 UK and 81 non-UK sites. Of 1119 patients with blood collected as of July 2010, 1046 were selected for study based on availability of clinical data and informed consent.
# Adverse events were graded following each treatment cycle using the NCI Common Toxicity Criteria for Adverse Events (CTCAE) version 3.0. Common FU-related toxicities—diarrhea, nausea and vomiting, mucositis/stomatitis, neutropaenia, thrombocytopaenia, and HFS—were analysed individually and also in combination as “global” toxicity. Adverse events were categorised as low (CTCAE grade 0/1/2) and high (CTCAE grade 3/4/5 at any treatment cycle). Hypertension and proteinuria were clearly related to bevacizumab (˜10-fold higher incidence) and were not included in the analysis.
# The QUASAR2 study was used as described in Example 1(a)(i). Of 1,119 patients with blood collected as of July 2010, 1,046 were selected for genetic study based on completeness of clinical data and informed consent.
# Toxicity phenotype data were collected as part of QUASAR2 according the NCI Common Toxicity Criteria for Adverse Events (CTCAE) version 3.0. Maximum toxicity (0-4) at any treatment cycle was derived for each of the following individual FU-related toxicities: diarrhea, nausea and vomiting, mucositis/stomatitis, neutropaenia, thrombocytopaenia and HFS. A global measure of toxicity was derived, defined as the maximum individual toxicity score measured for each patient. Global and individual toxicities were analysed using two approaches: (i) a binary classification into low toxicity (grade 0-2) versus high (dose-limiting) toxicity (grade 3-4); and (ii) a quantitative measure of toxicity. In the latter, if <100 patients experienced a particular grade of toxicity, these patients were combined into a single bin with an adjacent grade. Specifically, grades 01v2v34 for global, diarrhea and HFS and 0v1234 for the other, rarer toxicity phenotypes were analysed.
# [3] = Spanish Capecitabine Pharmacogenetic (SCP) Study: diarrhea and HFS by CTCAE v3.0; assay type: in vivo, human; settings: capecitabine monotherapy
# Protocol: Two additional data sets were used for validation of toxicity associations. The Spanish Capecitabine Pharmacogenetic (SCP) Study consisted of 233 colorectal and breast cancer patients prospectively recruited through several oncology units in Spain and treated with one of two capecitabine monotherapy regimens (standard: 1250 mg/m^2 twice daily d1-14 every 3 weeks; continuous: 800 mg/m^2 orally every 12 hours daily). HFS and diarrhea data Table 4 were collected according to CTCAEv3.0.
# [4] = human, in vivo, 8 cycles of 3 weeks
# [5] = patients selected for high and low toxicity
compound,measurement,setting,value
"O=c1[nH]cc(F)c(=O)[nH]1 [FU, 5-fluorouracil]","Patients suffering substantial toxicities (Grade 3 or above, CTCAE v3.0)","[1]; FU chemotherapy, background statement",10-30%
same,"Mortality (Grade 5, CTCAE v3.0) associated with FU use","[1]; overall, literature",0.5-1.0%
"CCCCCOC(=O)Nc1nc(=O)n(C2OC(C)C(O)C2O)cc1F (stereo not drawn) [capecitabine, pentyl [1-(3,4-dihydroxy-5-methyltetrahydrofuran-2-yl)-5-fluoro-2-oxo-1H-pyrimidin-4-yl]carbamate]",Toxicity-induced deaths in QUASAR2,"[2]; QUASAR2, patients with grade 4 myelotoxicity",two
same,"Patients, Global adverse event, CTCAE grade 0",[2]; [4],75
same,"Patients, Global adverse event, CTCAE grade 1",[2]; [4],241
same,"Patients, Global adverse event, CTCAE grade 2",[2]; [4],375
same,"Patients, Global adverse event, CTCAE grade 3",[2]; [4],334
same,"Patients, Neutropaenia, CTCAE grade 0",[2]; [4],921
same,"Patients, Neutropaenia, CTCAE grade 1",[2]; [4],71
same,"Patients, Neutropaenia, CTCAE grade 2",[2]; [4],28
same,"Patients, Neutropaenia, CTCAE grade 3",[2]; [4],17
same,"Patients, Thrombocytopaenia, CTCAE grade 0",[2]; [4],961
same,"Patients, Thrombocytopaenia, CTCAE grade 1",[2]; [4],67
same,"Patients, Thrombocytopaenia, CTCAE grade 2",[2]; [4],9
same,"Patients, Thrombocytopaenia, CTCAE grade 3",[2]; [4],0
same,"Patients, Thrombocytopaenia, CTCAE grade 4",[2]; [4],4
same,"Patients, Vomiting, CTCAE grade 3",[2]; [4],12
same,"Patients, Vomiting, CTCAE grade 4",[2]; [4],3
same,"Patients, Diarrhoea, CTCAE grade 0","[2]; human, in vivo, 24 weeks",370
same,"Patients, Diarrhoea, CTCAE grade 1","[2]; human, in vivo, 24 weeks",388
same,"Patients, Diarrhoea, CTCAE grade 2","[2]; human, in vivo, 24 weeks",175
same,"Patients, Diarrhoea, CTCAE grade 3","[2]; human, in vivo, 24 weeks",99
same,"Patients, Diarrhoea, CTCAE grade 4","[2]; human, in vivo, 24 weeks",10
same,"Patients, Global adverse event, CTCAE grade 4","[2]; human, in vivo, 24 weeks",19
same,"Patients, Handfoot, CTCAE grade 0","[2]; human, in vivo, 24 weeks",176
same,"Patients, Handfoot, CTCAE grade 1","[2]; human, in vivo, 24 weeks",287
same,"Patients, Handfoot, CTCAE grade 2","[2]; human, in vivo, 24 weeks",331
same,"Patients, Handfoot, CTCAE grade 3","[2]; human, in vivo, 24 weeks",246
same,"Patients, Handfoot, CTCAE grade 4","[2]; human, in vivo, 24 weeks",1
same,"Patients, Mucositis, CTCAE grade 0","[2]; human, in vivo, 24 weeks",734
same,"Patients, Mucositis, CTCAE grade 1","[2]; human, in vivo, 24 weeks",248
same,"Patients, Mucositis, CTCAE grade 2","[2]; human, in vivo, 24 weeks",49
same,"Patients, Mucositis, CTCAE grade 3","[2]; human, in vivo, 24 weeks",11
same,"Patients, Mucositis, CTCAE grade 4","[2]; human, in vivo, 24 weeks",0
same,"Patients, Stomatitis, CTCAE grade 0","[2]; human, in vivo, 24 weeks",718
same,"Patients, Stomatitis, CTCAE grade 1","[2]; human, in vivo, 24 weeks",244
same,"Patients, Stomatitis, CTCAE grade 2","[2]; human, in vivo, 24 weeks",67
same,"Patients, Stomatitis, CTCAE grade 3","[2]; human, in vivo, 24 weeks",11
same,"Patients, Stomatitis, CTCAE grade 4","[2]; human, in vivo, 24 weeks",1
same,"Patients, Vomiting, CTCAE grade 0","[2]; human, in vivo, 24 weeks",817
same,"Patients, Vomiting, CTCAE grade 1","[2]; human, in vivo, 24 weeks",134
same,"Patients, Vomiting, CTCAE grade 2","[2]; human, in vivo, 24 weeks",74
same,"Patients, Diarrhoea, highest CTCAE grade reported during treatment: 0","[3]; 233 colorectal and breast cancer patients, selected for high and low toxicity",143
same,"Patients, Diarrhoea, highest CTCAE grade reported during treatment: 1",[3]; [5],23
same,"Patients, Diarrhoea, highest CTCAE grade reported during treatment: 2",[3]; [5],17
same,"Patients, Diarrhoea, highest CTCAE grade reported during treatment: 3",[3]; [5],32
same,"Patients, Diarrhoea, highest CTCAE grade reported during treatment: 4",[3]; [5],4
same,"Patients, Handfoot, highest CTCAE grade reported during treatment: 0",[3]; [5],85
same,"Patients, Handfoot, highest CTCAE grade reported during treatment: 1",[3]; [5],28
same,"Patients, Handfoot, highest CTCAE grade reported during treatment: 2",[3]; [5],30
same,"Patients, Handfoot, highest CTCAE grade reported during treatment: 3",[3]; [5],86
same,"Patients, Handfoot, highest CTCAE grade reported during treatment: 4",[3]; [5],2
same,Share of capecitabine patients suffering dose-limiting levels of drug-induced adverse events,[1]; background statement,approximately one third
same,Mortality from rapid-onset toxicity relative to infusional and bolus 5-FU regimens (0.5% to 2%),"[1]; capecitabine schedules, literature",about half that number

# Source: US10774385B2, “Method of determining risk of 5-fluorouracil toxicity” (Oxford University Innovation Limited, priority 2014, dated 2020)
